{"source": "patent US10174288B2", "about": "“Induced pluripotent stem cell model for cardiofaciocutaneous syndrome and uses thereof” (Korea Advanced Institute of Science and Technology, priority 2013, dated 2019)", "assay_type_in_all_cases": "cell-based, human", "key": {"[1]": {"tested_on": "p-ERK", "experiment": "Western blotting of p-ERK in CFC-embryonic body differentiated with inhibitor", "details": "5 μM U0126, 100 nM LDN193189 during embryonic body differentiation; compared with untreated CFC-embryonic body; FIG. 7", "protocol": "(§1) Particularly, the colony of CFC-iPS induced by the same manner as described in Example <2-1> was cut into 4 pieces by using […] tissue chopper. The CFC-iPS fragments were distributed in the ultra-low attachment dish, followed by re-suspension in 5 ml of the embryonic body differentiation medium, which was DMED/F12 supplemented with 10% serum replacement (SR). After 4 days of suspension culture, the differentiation of a CFC-iPS-derived embryonic body (CFC-embryonic body) was induced. On day 2 and day 4 from the inducement, the CFC-embryonic body was obtained and the cell morphology was observed under phase contrast microscope. WT-iPS was cultured as the normal control by the same manner as described above, so that the differentiation of a WT-iPS-derived embryonic body (WT-embryonic body) was induced. […] The concentration of the protein was measured by brad-ford assay. […] The expression levels of SMAD1, p-SMAD1, ERK1, p-ERK1, ERK2, and p-ERK2 were quantified by using Image J, the program for the measurement of the pixel intensity, by which the band intensity turned into numerical value. The relative values of p-SMAD1/SMAD1, p-ERK1/ERK1, and p-ERK2/ERK2 were calculated and then the phosphorylation levels of SMAD1, ERK1, and ERK2 were compared with those of the normal control. […]"}, "[2]": {"tested_on": "p-SMAD1", "experiment": "Western blotting of p-SMAD1 in CFC-embryonic body differentiated with inhibitor", "details": "5 μM U0126, 100 nM LDN193189 during embryonic body differentiation; compared with untreated CFC-embryonic body; FIG. 7", "protocol": "as §1"}, "[3]": {"tested_on": "CFC-embryonic body", "experiment": "Embryonic body shape under phase contrast microscope", "details": "inhibitor present during CFC-embryonic body differentiation (LDN193189 100 nM, 4 days); compared with untreated CFC-embryonic body; FIG. 8", "protocol": "The CFC-iPS fragments were distributed in the ultra-low attachment dish, followed by re-suspension in 5 ml of the embryonic body differentiation medium, which was DMED/F12 supplemented with 10% serum replacement (SR). After 4 days of suspension culture, the differentiation of a CFC-iPS-derived embryonic body (CFC-embryonic body) was induced. On day 2 and day 4 from the inducement, the CFC-embryonic body was obtained and the cell morphology was observed under phase contrast microscope. WT-iPS was cultured as the normal control by the same manner as described above, so that the differentiation of a WT-iPS-derived embryonic body (WT-embryonic body) was induced. […] 4 days after the inducement started, the CFC-embryonic body was obtained and observed under phase contrast microscope to investigate the embryonic body shape. As for the normal control, WT-iPS was cultured by the same manner as described above to induce the differentiation of a WT-iPS derived embryonic body (WT-embryonic body)."}}}
{"smiles": "N#CC(=C(N)Sc1ccccc1N)C(C#N)=C(N)Sc1ccccc1N", "note": "[U0126, 1,4-diamino-2,3-dicyano-1,4-bis(2-aminophenylthio)butadiene]", "values": [{"measurement": "level of p-ERK in CFC-embryonic body", "setting": "[1]", "value": "down regulation"}, {"measurement": "level of p-SMAD1 in CFC-embryonic body", "setting": "[2]", "value": "reduced"}, {"measurement": "embryonic body shape", "setting": "[3]", "value": "normal unbroken embryonic body shape"}]}
